# Test results reported in US11261186B2, “Biaryl derivative as GPR120 agonist” (LG CHEM, LTD., priority 2014, dated 2022).
# pEC50: −log10 of the molar value.
# Target: T1, hGPR120 (Homo sapiens, UniProt Q5NUL3)
# T1 construct: expressed in transfected cells; host or cells: CHO-K1
# T1 sequence (Q5NUL3 1-361): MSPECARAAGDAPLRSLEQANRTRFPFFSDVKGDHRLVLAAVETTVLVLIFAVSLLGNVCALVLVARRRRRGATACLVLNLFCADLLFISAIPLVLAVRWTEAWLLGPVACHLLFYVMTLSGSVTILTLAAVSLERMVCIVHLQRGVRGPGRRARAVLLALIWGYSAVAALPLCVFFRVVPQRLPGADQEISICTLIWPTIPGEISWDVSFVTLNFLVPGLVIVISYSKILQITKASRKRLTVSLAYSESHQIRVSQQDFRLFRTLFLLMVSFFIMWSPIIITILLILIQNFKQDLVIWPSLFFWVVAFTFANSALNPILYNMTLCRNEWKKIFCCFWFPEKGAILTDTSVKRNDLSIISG
# Test: Measurement of Activity of GPR120 Agonist (Cell-Based Assay), Calcium 5 dye fluorescence
# Details: CHO-K1 cells expressing Ga16 and hGPR120
# Procedure: CHO-K1 cells expressing Ga16 and hGPR120 were dispensed into each well of a 96-well plate (3×10^4 cells/100 μl/well) and then incubated in 5% CO2, 37° C. incubator for 18 hours. Each well was treated with 100 μl of Calcium 5 dye (Molecular Devices) solution including 2% DMSO and then incubated in 5% CO2, 37° C. incubator for 1 hour. Serially diluted GPR120 agonists were prepared to a final concentration of 0.5% DMSO in a 96-well plate. Each well was treated with 50 μl of the agonist compounds using Plexstation II, and then fluorescence was measured at Ex 485 nm and Em 525 nm.
# Fluorescence increased by the serially diluted GPR120 agonists is calculated as a relative percent (%) value based on the fluorescence represented by the treatment of 1% DMSO only. […] The calculation of measurement was carried out by using statistical software (Prizm).
# Activity is denoted based on the following criteria: […]
row,pEC50,SMILES
1,5.70 to 6.70,"O=C(O)CCCOc1ccc(-c2cccc(OCC3CCC3)n2)cc1F [Example 539, 4-[4-(6-cyclobutylmethoxy-pyridin-2-yl)-2-fluoro-phenoxy]-butyric acid]"
2,< 4.70,"Cc1onc(COCC2CC2)c1-c1cc(F)c(OCCCC(=O)O)c(F)c1 [Example 390, 4-[4-[3-(cyclopropylmethoxymethyl)-5-methyl-isoxazol-4-yl]-2,6-difluoro-phenoxy]butanoic acid]"
3,> 6.70,"O=C(O)CCC1CC1c1c(F)cc(-c2cccnc2SC2CCC2)cc1F (stereo not drawn) [Example 176, 3-{2-[4-(2-cyclobutylsulfanyl-pyridin-3-yl)-2,6-difluoro-phenyl]-cyclopropyl}-propanoic acid]"
4,> 6.70,"COc1ccc(-c2cc(F)c(C(C)CCCC(=O)O)c(F)c2)cc1OCC1CC1 (stereo not drawn) [Example 412, 5-(3′-cyclopropylmethoxy-3,5-difluoro-4′-methoxy-biphenyl-4-yl)-hexanoic acid]"
5,> 6.70,"CC(C)Oc1cncc(-c2cc(F)c(N3CCC(CC(=O)O)C3)c(F)c2)n1 (stereo not drawn) [Example 586, {1-[2,6-difluoro-4-(6-isopropoxy-pyrazin-2-yl)-phenyl]-pyrrolidin-3-yl}-acetic acid]"
6,> 6.70,"CC(C)Oc1ncccc1-c1ccc2cc(CCC(=O)O)ccc2c1 [Example 149, 3-[6-(2-isopropoxy-pyridin-3-yl)-naphthalen-2-yl]-propanoic acid]"
7,5.70 to 6.70,"CCOc1nc(-c2cc(F)c(N3CCC(CC(=O)O)CC3)c(F)c2)sc1C [Example 368, {1-[4-(4-ethoxy-5-methyl-thiazol-2-yl)-2,6-difluoro-phenyl]-piperidin-4-yl}acetic acid]"
8,5.70 to 6.70,"O=C(O)C1CC1COc1c(F)cc(-c2nccc(OCC3CC3)n2)cc1F (stereo not drawn) [Example 545, 2-[4-(4-cyclopropylmethoxy-pyrimidin-2-yl)-2,6-difluoro-phenoxymethyl]-cyclopropanecarboxylic acid]"
9,> 6.70,"O=C(O)CC1CN(c2c(F)cc(-c3cccnc3SC3CCCC3)cc2F)C1 [Example 112, 2-[1-[4-(2-cyclopentylsulfanyl-3-pyridyl)-2,6-difluoro-phenyl]azetidin-3-yl]acetic acid]"
10,> 6.70,"CN(CCCC(=O)O)c1c(F)cc(-c2cccnc2OC2CCCC2)cc1F [Example 196, 4-{[4-(2-cyclopentyloxy-pyridin-3-yl)-2,6-difluoro-phenyl]-methyl-amino}-butyric acid]"
11,5.70 to 6.70,"O=C(O)C1CC1COc1c(F)cc(-c2cccc(OCC3CC3)n2)cc1Cl (stereo not drawn) [Example 552, 2-[2-chloro-4-(6-cyclopropylmethoxy-pyridin-2-yl)-6-fluoro-phenoxymethyl]-cyclopropanecarboxylic acid]"
12,> 6.70,"CC1(C)Cc2cccc(-c3cc(F)c(OCCCC(=O)O)c(F)c3)c2O1 [Example 22, 4-[4-(2,2-dimethyl-2,3-dihydro-benzofuran-7-yl)-2,6-difluoro-phenoxy]-butyric acid]"
13,5.70 to 6.70,"O=C(O)CC1CCN(c2c(F)cc(-c3csc(OCC4CC4)n3)cc2F)C1 (stereo not drawn) [Example 583, {1-[4-(2-cyclopropylmethoxy-thiazol-4-yl)-2,6-difluoro-phenyl]-pyrrolidin-3-yl}-acetic acid]"
14,5.70 to 6.70,O=C(O)CC1CCN(c2c(F)cc(-c3nccc(Oc4cccnc4)n3)cc2F)CC1 [Example 512]
15,> 6.70,"O=C(O)CC1CCN(c2c(F)cc(-c3cncc(Oc4ccc(F)cc4)n3)cc2F)CC1 [Example 513, 2-[1-[2,6-difluoro-4-[6-(4-fluorophenoxy)pyrazin-2-yl]phenyl]-4-piperidyl]acetic acid]"
16,5.70 to 6.70,"COc1cncc(-c2cc(F)c(N3CCC(CC(=O)O)CC3)c(F)c2)n1 [Example 340, 2-[1-[2,6-difluoro-4-(6-methoxypyrazin-2-yl)phenyl]-4-piperidyl]acetic acid]"
17,4.70 to 5.70,"O=C(O)CC1CCN(c2c(F)cc(-n3ccc4cccc(Cl)c43)cc2F)CC1 [Example 481, 2-[1-[4-(7-chloroindol-1-yl)-2,6-difluoro-phenyl]-4-piperidyl]acetic acid]"
18,5.70 to 6.70,"O=C(O)COc1ccc2cc(-c3cccc(OC4CCCC4)n3)ccc2c1 [Example 3, [6-(6-cyclopentyloxy-pyridin-2-yl)-naphthalen-2-yloxy]-acetic acid]"
19,> 6.70,"O=C(O)CCC1CCc2cc(-c3cccnc3OCC3CC3)ccc2S1 (stereo not drawn) [Example 279, 3-[6-(2-cyclopropylmethoxy-pyridin-3-yl)-thiochroman-2-yl]-propionic acid]"
20,> 6.70,"O=C(O)CC1CCN(c2c(F)cc(-c3nccc(OCC4CC4)n3)cc2F)CC1 [Example 332, 2-[1-[4-[4-(cyclopropylmethoxy)pyrimidin-2-yl]-2,6-difluoro-phenyl]-4-piperidyl]acetic acid]"
21,> 6.70,"CC(C)Sc1cccc(-c2cc(F)c(C(C)CCCC(=O)O)c(F)c2)n1 (stereo not drawn) [Example 53, 5-[2,6-difluoro-4-(6-isopropylsulfanyl-2-pyridyl)-phenyl]hexanoic acid]"
22,4.70 to 5.70,"O=C(O)COCC(F)(F)c1ccc(-c2cccnc2SC2CCC2)cc1 [Example 173, {2-[4-(2-cyclobutylsulfanyl-pyridin-3-yl)-phenyl]-2,2-difluoro-ethoxy}-acetic acid]"
23,> 6.70,"CN(CCCC(=O)O)c1ccc(-c2cccnc2SC2CCC2)cc1F [Example 209, 4-{[4-(2-cyclobutylsulfanyl-pyridin-3-yl)-2-fluoro-phenyl]-methyl-amino}-butyric acid]"
24,> 6.70,"CN(CCCC(=O)O)c1c(F)cc(-c2cccnc2SC2CCCC2)cc1F [Example 197, 4-{[4-(2-cyclopentylsulfanyl-pyridin-3-yl)-2,6-difluoro-phenyl]-methyl-amino}-butyric acid]"
25,> 6.70,"O=C(O)CCCOc1c(F)cc(-n2ccc3cc(F)ccc32)cc1F [Example 465, 4-[2,6-difluoro-4-(5-fluoroindol-1-yl)phenoxy]butanoic acid]"
26,> 6.70,"O=C(O)CCCCc1c(F)cc(-c2cccc3c2OC(F)(F)O3)cc1F [Example 34, 5-[4-(2,2-difluoro-benzo[1,3]dioxol-4-yl)-2,6-difluoro-phenyl]pentanoic acid]"

row,SMILES,pEC50
1,"Cc1cc(OC2CCC2)nc(-c2cc(F)c(OCCCC(=O)O)c(Cl)c2)c1 [Example 429, 4-[2-chloro-4-(6-cyclobutoxy-4-methyl-pyridin-2-yl)-6-fluoro-phenoxy]-butyric acid]",> 6.70
2,"Cc1cc(OC2CCC2)nc(-c2cc(F)c(N(C)CCCC(=O)O)c(F)c2)n1 [Example 484, 4-[4-[4-(cyclobutoxy)-6-methyl-pyrimidin-2-yl]-2,6-difluoro-N-methyl-anilino]butanoic acid]",> 6.70
3,"CN(CCCC(=O)O)c1c(F)cc(-c2nccc(OC3CCC3)n2)cc1F [Example 485, 4-[4-[4-(cyclobutoxy)pyrimidin-2-yl]-2,6-difluoro-N-methyl-anilino]butanoic acid]",> 6.70
4,"O=C(O)CCCOc1ccc(-c2cc(F)cc(OC3CCC3)c2)cc1F [Example 536, 4-(5′-cyclobutoxy-3,3′-difluoro-biphenyl-4-yloxy)-butyric acid]",> 6.70
5,"CN(CCCC(=O)O)c1c(F)cc(-c2cccc(OC3CCC3)n2)cc1F [Example 205, 4-{[4-(6-cyclobutoxy-pyridin-2-yl)-2,6-difluoro-phenyl]-methyl-amino}-butyric acid]",> 6.70
6,"Cc1nsc(OC2CCC2)c1-c1cc(F)c(N2CCC(CC(=O)O)CC2)c(F)c1 [Example 366, 2-[1-[4-[5-(cyclobutoxy)-3-methyl-isothiazol-4-yl]-2,6-difluoro-phenyl]-4-piperidyl]acetic acid]",5.70 to 6.70
7,"CN(Cc1cc(O)no1)c1ccc(-c2cccnc2OC2CCCC2)cc1 [Example 86, 5-[[4-[2-(cyclopentoxy)-3-pyridyl]-N-methyl-anilino]methyl]isoxazol-3-ol]",> 6.70
8,"O=C(O)CCCC(F)(F)c1ccc(-c2cccnc2OC2CCC2)cc1 [Example 185, 5-[4-(2-cyclobutoxy-pyridin-3-yl)-phenyl]-5,5-difluoro-pentanoic acid]",> 6.70
9,"O=C(O)CCC1CCc2cc(-c3cccnc3OC3CCCC3)ccc2S1 (stereo not drawn) [Example 271, 3-[6-(2-cyclopentoxy-pyridin-3-yl)-thiochroman-2-yl]-propionic acid]",> 6.70
10,"Oc1cc(COc2c(F)cc(-c3cccnc3OC3CCCC3)cc2F)on1 [Example 67, 5-[[4-[2-(cyclopentoxy)-3-pyridyl]-2,6-difluoro-phenoxy]methyl]isoxazol-3-ol]",> 6.70
11,"CC(C)Sc1ncccc1-c1ccc(C(C)(C)CCCC(=O)O)cc1 [Example 159, 5-[4-(2-isopropylsulfanyl-pyridin-3-yl)-phenyl]-5-methyl-hexanoic acid]",> 6.70
12,"O=C(O)CC1CCN(c2c(F)cc(-n3ncc4ccc(OC5CCC5)cc43)cc2F)CC1 [Example 487, 2-[1-[4-[6-(cyclobutoxy)indazol-1-yl]-2,6-difluoro-phenyl]-4-piperidyl]acetic acid]",5.70 to 6.70
13,"O=C(O)CCC1CCc2cc(-c3cccc(OC4CCCC4)c3)ccc2O1 (stereo not drawn) [Example 448, 3-[6-[3-(cyclopentoxy)phenyl]chroman-2-yl]propanoic acid]",> 6.70
